Source: patent publication US8242280B2, “Fused ring heterocycle kinase modulators” (SGX Pharmaceuticals, Inc., priority 2007, dated 2012)

How the values were obtained:
Ba/F3 cells, ABL1 T315I = Ba/F3 cells, ABL1 T315I (Homo sapiens, UniProt P00519, T315I, cells depend on it); experiment: 96-well XTT cell survival assay, Ba/F3 ABL1 T315I; type: cell-based; conditions: 72 hours, read-out: ABL1 T315I XTT [Ba/F3] IC50
In short: (§1)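 Ba/F3 cells carrying wild-type or T315I ABL1 were seeded at 5000-8000 per well with graded compound concentrations in duplicate and grown 72 hours at 37° C. Survival was read by XTT/PMS reduction after a further 2-6 h, as absorbance at 405 nm with 650 nm background correction.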

[1] = target: T1, unphosphorylated T315I Abl kinase domain (Mus musculus, UniProt P00520, T315I); experiment: c-Abl T315I 0P bioassay (pyruvate kinase/lactate dehydrogenase coupled enzyme assay); type: biochemical; conditions: zero phosphorylation state (0P), 10 μM ATP, read-out: AbI T315I 0P IC50
T1 construct: purified and unphosphorylated T315I Abl kinase domain; made in house; host or cells: E. coli BL21(DE3) (Codon+RIL or pSA0145 strain)
T1 sequence (P00520 242-493 T315I limits assumed): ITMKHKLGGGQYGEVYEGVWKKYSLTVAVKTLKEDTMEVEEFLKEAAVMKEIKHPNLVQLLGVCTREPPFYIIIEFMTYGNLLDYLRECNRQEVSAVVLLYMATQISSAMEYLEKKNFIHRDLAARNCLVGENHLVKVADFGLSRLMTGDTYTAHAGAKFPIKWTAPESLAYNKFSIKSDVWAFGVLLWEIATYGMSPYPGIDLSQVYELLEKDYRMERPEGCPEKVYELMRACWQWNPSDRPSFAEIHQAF

Ba/F3 cells, ABL1 WT = Ba/F3 cells, ABL1 WT (Homo sapiens, UniProt P00519); experiment: 96-well XTT cell survival assay, Ba/F3 ABL1 WT; type: cell-based; conditions: 72 hours, read-out: ABL1 WT XTT [Ba/F3] IC50
In short: as §1

SMILES	IC50 [1] [nM]	GI50 (Ba/F3 cells, ABL1 T315I) [nM]	GI50 (Ba/F3 cells, ABL1 WT) [nM]
COc1ccccc1-c1n[nH]c2ncc(-c3cccc(C(C)C(=O)N(C)CCN(C)C)c3)cc12 (stereo not drawn)	< 50	> 1000	> 1000
CSc1ccccc1-c1c[nH]c2ncc(-c3cncc(C(O)C(=O)N(C)C)c3)cc12 (stereo not drawn)	< 50	< 1000	< 1000
COc1ccccc1-c1n[nH]c2ncc(-c3cccc(C(O)C(=O)N4CC(O)C4)c3)cc12 (stereo not drawn)	< 50	> 1000	> 1000
COc1ccccc1-c1c[nH]c2ncc(-c3cccc(C(C(=O)N(C)C)N4CCNCC4)c3)cc12 (stereo not drawn)	< 50	> 1000	> 1000
COc1ccccc1-c1c[nH]c2ncc(-c3cc(C(O)C(=O)N(C)C)ncn3)cc12 (stereo not drawn)	50 to 500	> 1000	> 1000
COC[C@H]1CCCN1C(=O)C(O)c1cccc(-c2cnc3[nH]nc(-c4ccccc4OC)c3c2)c1 (stereo partly drawn)	< 50	> 1000	< 1000
COc1ccccc1-c1n[nH]c2ncc(-c3cccc(C(O)CO)c3)cc12 (stereo not drawn)	< 50	> 1000	< 1000
COc1ncccc1-c1c[nH]c2ncc(-c3cncc(C(O)C(=O)N(C)C)c3)cc12 (stereo not drawn)	< 50	> 1000	< 1000
CN(C)C(=O)C(O)c1cncc(-c2cnc3[nH]cc(-c4ccccc4)c3c2)c1 (stereo not drawn)	< 50	< 1000	< 1000
COc1ccccc1-c1n[nH]c2ncc(-c3cccc(C(C)C(=O)N4CCC(O)CC4)c3)cc12 (stereo not drawn)	< 50	> 1000	< 1000
COc1ccccc1-c1c[nH]c2ncc(-c3cccc(C(C(=O)N4CCC[C@@H]4CO)N4CCNCC4)c3)cc12 (stereo partly drawn)	< 50	> 1000	> 1000
COc1ccccc1-c1n[nH]c2ncc(-c3cccc(C(OC)C(=O)N(C)C)c3)cc12 (stereo not drawn)	< 50	< 1000	< 1000
COc1ccccc1-c1c[nH]c2ncc(-c3cccc(C(O)c4ccccn4)c3)cc12 (stereo not drawn)	< 50	< 1000	< 1000
COc1ccccc1-c1n[nH]c2ncc(-c3cccc(C(O)C(=O)N(C)CCC#N)c3)cc12 (stereo not drawn)	< 50	< 1000	< 1000
COc1ccccc1-c1c[nH]c2ncc(-c3cc(C(O)C(=O)N(C)C)ccn3)cc12 (stereo not drawn)	< 50	> 1000	> 1000
Cc1n[nH]cc1-c1c[nH]c2ncc(-c3cncc(C(O)C(=O)N(C)C)c3)cc12 (stereo not drawn)	< 50	> 1000	> 1000
COc1ccccc1-c1n[nH]c2ncc(-c3cccc(C(OC)C(=O)N(C)CCN(C)C)c3)cc12 (stereo not drawn)	< 50	< 1000	< 1000
CN(C)C(=O)C(O)c1cncc(-c2cnc3[nH]cc(-c4cncnc4)c3c2)c1 (stereo not drawn)	> 500	> 1000	> 1000
Cc1cccc(-c2c[nH]c3ncc(-c4cncc(C(O)C(=O)N(C)C)c4)cc23)c1 (stereo not drawn)	< 50	< 1000	< 1000
COc1ccccc1-c1n[nH]c2ncc(-c3cccc(C(C)C(=O)N4CC(O)C4)c3)cc12 (stereo not drawn)	< 50	> 1000	> 1000
CN(C)C(=O)C(O)c1cncc(-c2cnc3[nH]cc(-c4ccccc4F)c3c2)c1 (stereo not drawn)	< 50	< 1000	< 1000
CN(C)C(=O)C(O)c1cncc(-c2cnc3[nH]cc(-c4ccnn4-c4ccccc4)c3c2)c1 (stereo not drawn)	< 50	> 1000	< 1000
COc1ccccc1-c1n[nH]c2ncc(-c3cccc(C(O)C(=O)N(C)C4CCN(C)C4)c3)cc12 (stereo not drawn)	< 50	< 1000	< 1000
CN(C)C(=O)C(O)c1cncc(-c2cnc3[nH]cc(-c4ccc(CO)cc4)c3c2)c1 (stereo not drawn)	< 50	> 1000	> 1000
COc1ccccc1-c1n[nH]c2ncc(-c3cccc([C@@H]4OCO[C@@H]4C(C)C)c3)cc12	< 50	> 1000	> 1000
COC(=O)C1=C(C)NC(=O)NC1c1cccc(-c2cnc3[nH]cc(-c4ccccc4OC)c3c2)c1 (stereo not drawn)	< 50	> 1000	> 1000
CN(C)C(=O)C(O)c1cncc(-c2cnc3[nH]cc(-c4ccc5c(c4)OCO5)c3c2)c1 (stereo not drawn)	< 50	> 1000	< 1000
CNC(C(=O)N(C)CCN(C)C)c1cccc(-c2cnc3[nH]nc(-c4ccccc4OC)c3c2)c1 (stereo not drawn)	< 50	> 1000	> 1000

Now from value to molecule, other results behind:

IC50 [1] [nM]	SMILES	GI50 (Ba/F3 cells, ABL1 T315I) [nM]	GI50 (Ba/F3 cells, ABL1 WT) [nM]
50 to 500	COc1ccccc1-c1n[nH]c2ncc(-c3cccc(C(C(=O)N(C)CCN(C)C)N(C)C)c3)cc12 (stereo not drawn)	> 1000	> 1000
< 50	COc1ccccc1-c1n[nH]c2ncc(-c3cccc(C(N)C(=O)N4CC(O)C4)c3)cc12 (stereo not drawn)	> 1000	> 1000
< 50	COc1ccccc1-c1n[nH]c2ncc(-c3cccc([C@H]4OCO[C@@H]4C(C)C)c3)cc12	> 1000	> 1000
50 to 500	CN(C)C(=O)C(O)c1cncc(-c2cnc3[nH]cc(-c4ccncc4)c3c2)c1 (stereo not drawn)	> 1000	> 1000
< 50	CC[C@H](O)[C@@H](O)c1cccc(-c2cnc3[nH]cc(-c4ccccc4OC)c3c2)c1	< 1000	< 1000
< 50	COc1ccccc1-c1n[nH]c2ncc(-c3cccc(C(O)c4ncccc4F)c3)cc12 (stereo not drawn)	< 1000	< 1000
< 50	COc1ccccc1-c1n[nH]c2ncc(-c3cccc(C(C)C(=O)N4CCC(N(C)C)CC4)c3)cc12 (stereo not drawn)	< 1000	< 1000
< 50	COc1ccccc1-c1c[nH]c2ncc(-c3cccc(C(C(=O)N(C)CCN(C)C)N4CCNCC4)c3)cc12 (stereo not drawn)	> 1000	> 1000
< 50	COc1ccccc1-c1c[nH]c2ncc(-c3cccc(C(F)C(=O)N(C)C)c3)cc12 (stereo not drawn)	> 1000	> 1000
50 to 500	CN(C)C(=O)C(O)c1cncc(-c2cnc3[nH]cc(-c4ccnn4CCO)c3c2)c1 (stereo not drawn)	> 1000	> 1000
< 50	COc1ccccc1-c1n[nH]c2ncc(-c3cccc(C(=O)C(=O)N4CC(O)C4)c3)cc12	> 1000	> 1000
< 50	COc1ccccc1-c1c[nH]c2ncc(-c3cccc(C(O)CN)c3)cc12 (stereo not drawn)	> 1000	> 1000
< 50	COc1ccc(-c2c[nH]c3ncc(-c4cncc(C(O)C(=O)N(C)C)c4)cc23)cc1 (stereo not drawn)	> 1000	> 1000
< 50	COc1ccccc1-c1n[nH]c2ncc(-c3cccc([C@@H](C)O)c3)cc12	< 1000	< 1000
< 50	COc1ccccc1-c1c[nH]c2ncc(-c3cccc(C(O)C(=O)N(C)C[C@@H](O)CO)c3)cc12 (stereo partly drawn)	< 1000	< 1000
< 50	COc1ccccc1-c1c[nH]c2ncc(-c3cccc(C4NC(=O)NC(C)=C4C(=O)N(C)C)c3)cc12 (stereo not drawn)	> 1000	> 1000
< 50	COc1ccccc1-c1c[nH]c2ncc(-c3cncc([C@@H](O)C(=O)N(C)C)c3)cc12	< 1000	< 1000
< 50	COc1ccccc1-c1c[nH]c2ncc(-c3cncc(C(O)C(=O)N(C)C)c3)cc12 (stereo not drawn)	< 1000	< 1000
